Source: patent US20240253023A1, “PERFLUORINATED AMIDE SALTS AND THEIR USES AS IONIC CONDUCTING MATERIALS” (priority 1996, published 2024)
Counter-ions that a name gives are not always drawn.

Experiments:
[1] = solubility in organic solvents and polymers; conditions: for solubility in organic solvents: organic solvents (tetrahydrofurane, acetonitrile, dimethylformamide, ethyl acetate, glymes ...), mostly also in aprotic solvating or polar polymers
[2] = ionic conductivity of salts and polyelectrolytes in polymer, liquid, gel or molten media; type: physicochemical
[3] = oxidation potential towards a lithium anode; type: physicochemical
[4] = acid form; cited from earlier work
[5] = cationic transport number of electrolytes; type: physicochemical; conditions: in poly (ethylene oxide)
[6] = reversible redox potential in poly (ethylene oxide) on a platinum electrode, towards a lithium electrode; type: physicochemical; conditions: platinum electrode 125 μm
Description: These salts have a reversible redox couple. In poly (ethylene oxide) a reversible potential≈3.4 V towards a lithium electrode was determined on a platinum electrode having a diameter of 125 μm.
This salt has two reversible redox couples. In poly (ethylene oxide), on a platinum electrode of a diameter of 125 μm, it was shown that there is a first redox couple having a potential≈3.2 V and a second redox couple having a potential≈3.8 V, these potentials being measured towards a lithium electrode.

[7] = in poly (ethylene oxide), O/Li 12/1, 60° C.

Q: With `CCCCC(CC)CN(CC(CC)CCCC)S(=O)(=O)[N-]S(=O)(=O)C(F)(F)F.CCN1C(=CC=CC=CC=Cc2sc3ccccc3[n+]2CC)Sc2ccccc21` [3,3′-diethylthiatricarbocyanine of di-2-ethylhexylaminosulfonyl(trifluoro-methanesulfonyl)imide] as the molecule, how does the “solubility in low polar solvents” value ([1]; dichloromethane or methylene chloride, polymer matrices with low polarity such as methyl polymethacrylate) read?
A: very soluble in low polar solvents

Q: Which conductivity [2, 7] does the source give for `O=S(=O)(CC(F)(F)F)[N-]S(=O)(=O)C(F)(F)F.[Li+]` [Example 9, lithium salt of trifluoromethanesulfonyl(2,2,2-trifluoroethane-sulfonyl) imide] here?
A: 2.3×10^−4 S·cm^−1

Q: For `CN(C)S(=O)(=O)[N-]S(=O)(=O)C(F)(F)F.CN(C)S(=O)(=O)[N-]S(=O)(=O)C(F)(F)F.CN(C)S(=O)(=O)[N-]S(=O)(=O)C(F)(F)F.[La+3]` [Example 30, lanthanum salt of trifluoromethanesulfonyl(dimethylaminosulfonyl)-imide], which “solubility in organic solvents” value [1] is on record?
A: highly soluble in the usual organic solvents

Q: Which oxidation potential ([3]; 1 M in ethylene carbonate and dimethylcarbonate (2:1)) does the source give for `O=S(=O)(Nc1nnc(C(F)(F)F)s1)C(F)(F)F` [Example 34, trifluoromethanesulfonyl(5-trifluoromethyl-1,3,4 thiadiazole)amide] here?
A: higher than 4 V

Q: And the “solubility in organic solvents” value [1]?
A: soluble in most usual organic solvents

Q: Which oxidation potential ([3]; 0.5 M in acetonitrile) does the source give for `O=S(=O)([N-]S(=O)(=O)C(F)(F)F)c1nnc(C(F)(F)F)s1.[Li+]` [Example 35, lithium salt of trifluoromethanesulfonyl(5-trifluoromethyl-1,3,4-thiadiazole-5-sulfonyl)imide] here?
A: higher than 4.5 V

Q: And the “solubility in organic solvents” value [1]?
A: soluble in most usual organic solvents

Q: For `O=S(=O)(NS(=O)(=O)C(F)(F)F)OC(C(F)(F)F)C(F)(F)F` [Example 37 molten salt, trifluoromethanesulfonyl(1,1,1,3,3,3-hexafluoro-2-propanoxysulfonyl)imide 1-ethyl-3-methyl-1H-imidazolium], which conductivity ([2]; neat molten salt, temperature not stated) is on record?
A: 3.91×10^−3 S·cm^−1

Q: For `CN(C)c1cccc2c(S(=O)(=O)[N-]S(=O)(=O)C(F)(F)F)cccc12.[K+]` [Example 53, potassium trifluoromethane-sulfonyl(5-dimethylamino-1-naphthalenesulfonyl)imide], which “solubility in organic solvents” value [1] is on record?
A: soluble in most polar organic solvents

Q: With `O=S(=O)(CCc1c2ccccc2cc2ccccc12)[N-]S(=O)(=O)C(F)(F)F.[K+]` [Example 56, potassium salt of trifluoromethanesulfonyl(anthracenyl-9-ethanesulfonyl)imide] as the molecule, how does the “solubility in organic solvents” value [1] read?
A: soluble in most usual organic solvents

Q: Which pKa [4] does the source give for `O=S(=O)(NS(=O)(=O)C(F)(F)F)C(F)(F)F` [H[CF3SO2—N—SO2CF3]] here?
A: 1.95

Q: With `CCN(CC)S(=O)(=O)[N-]S(=O)(=O)C(F)(F)F.CCN(CC)S(=O)(=O)[N-]S(=O)(=O)C(F)(F)F.CCN(CC)S(=O)(=O)[N-]S(=O)(=O)C(F)(F)F.[Yb+3]` [Yb(DETFSI)3, ytterbium salt of diethylaminosulfonyl(trifluoromethanesulfonyl)imide] as the molecule, how does the solubility in dichloromethane ([1]; dichloromethane) read?
A: good solubility in dichloromethane

Q: Which conductivity ([2]; in poly (ethylene oxide), O/Li=12/1, temperature not stated) does the source give for `CCCN(CCC)S(=O)(=O)[N-]S(=O)(=O)C(F)(F)F.[Li+]` [lithium salt of trifluoromethanesulfonyl(dipropylaminosulfonyl)-imide] here?
A: 1.4×10^−4 S·cm^−1

Q: And the cationic transport number ([5]; O/Li=12/1)?
A: 0.42

Q: Which cationic transport number ([5]; O/Li=16/1) does the source give for `CCCCCCCCCCCCS(=O)(=O)[N-]S(=O)(=O)C(F)(F)F.[Li+]` [lithium salt of trifluoromethanesulfonyl(dodecylsulfonyl)imide] here?
A: about 0.55

Q: With `CN(C)S(=O)(=O)[N-]S(=O)(=O)C(F)(F)F.[Li+]` [lithium salt of trifluoromethanesulfonyl-(dimethylaminosulfonyl)imide] as the molecule, how does the conductivity [2, 7] read?
A: 1.2×10^−4 S·cm^−1

Q: Which conductivity ([2]; in poly (ethylene oxide), O/K=12/1, 60° C.) does the source give for `CN(C)S(=O)(=O)[N-]S(=O)(=O)C(F)(F)F.[K+]` [potassium salt of trifluoromethanesulfonyl-(dimethylaminosulfonyl)irnide] here?
A: 5.10^−4 S·cm^−1

Q: Which “solubility in organic solvents” value [1] does the source give for “N-trifluoromethanesulfonyl-2-aminoacridine tetraethylammonium [Example 54]” here?
A: soluble in most usual organic solvents

Q: Which “potential of first redox couple” value [6] does the source give for “di-lithium salt of 9-10-(propylsulfonamide-N-trifluoromethanesulfonyl)phenazine [Example 61]” here?
A: ≈ 3.2 V

Q: And the “potential of second redox couple” value [6]?
A: ≈ 3.8 V

Q: For “potassium salt of N,N′,N″,N′″-perfluorobutanesulfonyl-Nickel(II) phtalocyaninetetrasulfonamide [Example 57]”, which “solubility in organic solvents” value [1] is on record?
A: soluble in most usual organic solvents
